Laboratory results taken from ChEMBL document CHEMBL5653631, “A Potent and Selective ULK1 Inhibitor Suppresses Autophagy and Sensitizes Cancer Cells to Nutrient Stress” (iScience, 2018).
Values belong to the compound of their own block, whether it stands above or below them.

What was measured:
[1] = molecular target: Cyclin-dependent kinase 2 (Homo sapiens) (UniProt P24941); assay: Inhibition of human recombinant CDK2 at 500 nM related to control ULK1
[2] = molecular target: Homeodomain-interacting protein kinase 3 (Homo sapiens) (UniProt Q9H422); assay: Inhibition of human recombinant HIPK3 at 15 nM in presence of ATP by radiometric assay relative to control
[3] = molecular target: T1, Serine/threonine-protein kinase Nek2 (Homo sapiens) (UniProt P51955); assay: Inhibition of human recombinant NEK2 at 15 nM in presence of ATP by radiometric assay relative to control
T1 sequence (whole entry): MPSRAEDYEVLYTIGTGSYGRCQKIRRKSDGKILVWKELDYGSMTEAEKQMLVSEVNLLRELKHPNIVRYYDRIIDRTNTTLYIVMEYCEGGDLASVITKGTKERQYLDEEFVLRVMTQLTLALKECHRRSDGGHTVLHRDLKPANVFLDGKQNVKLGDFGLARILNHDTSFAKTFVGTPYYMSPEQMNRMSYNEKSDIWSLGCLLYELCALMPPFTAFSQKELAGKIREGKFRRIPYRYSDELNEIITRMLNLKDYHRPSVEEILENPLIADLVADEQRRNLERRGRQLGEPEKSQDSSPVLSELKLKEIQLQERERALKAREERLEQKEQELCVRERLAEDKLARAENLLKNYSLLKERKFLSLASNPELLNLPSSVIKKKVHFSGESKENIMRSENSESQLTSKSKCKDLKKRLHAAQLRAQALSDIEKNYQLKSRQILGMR

[4] = molecular target: Serine/threonine-protein kinase PAK 2 (Homo sapiens) (UniProt Q13177); assay: Inhibition of human recombinant PAK2 at 15 nM in presence of ATP by radiometric assay relative to control
[5] = molecular target: T2, Dual specificity tyrosine-phosphorylation-regulated kinase 3 (Homo sapiens) (UniProt O43781); assay: Inhibition of human recombinant DYRK3 at 15 nM related to control ULK1
T2 sequence (whole entry): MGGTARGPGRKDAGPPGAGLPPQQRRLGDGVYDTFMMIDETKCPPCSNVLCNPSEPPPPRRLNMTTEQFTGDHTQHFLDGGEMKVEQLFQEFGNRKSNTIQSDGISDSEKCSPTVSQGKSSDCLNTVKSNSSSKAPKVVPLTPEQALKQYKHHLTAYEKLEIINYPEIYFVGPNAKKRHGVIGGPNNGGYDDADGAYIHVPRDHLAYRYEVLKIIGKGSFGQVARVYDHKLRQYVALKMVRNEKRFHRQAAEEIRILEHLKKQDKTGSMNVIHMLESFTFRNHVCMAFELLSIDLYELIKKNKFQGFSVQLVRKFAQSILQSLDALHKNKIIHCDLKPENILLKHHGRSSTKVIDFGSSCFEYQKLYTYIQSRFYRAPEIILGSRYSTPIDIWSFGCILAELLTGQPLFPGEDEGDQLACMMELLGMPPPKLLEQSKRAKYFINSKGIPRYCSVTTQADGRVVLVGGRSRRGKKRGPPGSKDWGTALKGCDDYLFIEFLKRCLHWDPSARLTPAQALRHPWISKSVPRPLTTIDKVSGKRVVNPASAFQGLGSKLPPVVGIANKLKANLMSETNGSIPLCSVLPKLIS

[6] = molecular target: T3, NUAK family SNF1-like kinase 2 (Homo sapiens) (UniProt Q9H093); assay: Inhibition of human recombinant NuaK2 at 15 nM related to control ULK1
T3 sequence (whole entry): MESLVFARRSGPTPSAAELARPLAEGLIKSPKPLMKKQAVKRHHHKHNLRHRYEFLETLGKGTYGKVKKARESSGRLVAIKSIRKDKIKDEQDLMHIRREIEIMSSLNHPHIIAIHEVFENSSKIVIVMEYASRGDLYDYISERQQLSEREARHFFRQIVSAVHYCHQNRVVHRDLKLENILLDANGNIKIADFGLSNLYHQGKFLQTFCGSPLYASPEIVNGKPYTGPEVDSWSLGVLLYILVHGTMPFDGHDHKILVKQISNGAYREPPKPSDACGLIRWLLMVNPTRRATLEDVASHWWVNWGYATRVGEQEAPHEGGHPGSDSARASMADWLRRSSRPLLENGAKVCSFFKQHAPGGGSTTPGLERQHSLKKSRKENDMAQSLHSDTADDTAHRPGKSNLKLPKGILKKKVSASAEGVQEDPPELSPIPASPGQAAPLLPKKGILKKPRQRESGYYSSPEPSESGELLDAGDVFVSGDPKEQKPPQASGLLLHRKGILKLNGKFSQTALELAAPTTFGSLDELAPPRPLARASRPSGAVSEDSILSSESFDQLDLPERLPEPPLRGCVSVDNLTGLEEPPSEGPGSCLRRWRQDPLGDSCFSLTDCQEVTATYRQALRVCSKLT

[7] = molecular target: Serine/threonine-protein kinase VRK2 (Homo sapiens) (UniProt Q86Y07); assay: Inhibition of human recombinant VRK2 at 15 nM related to control ULK1
[8] = molecular target: T4, Mitogen-activated protein kinase kinase kinase 7 (Homo sapiens) (UniProt O43318); assay: Inhibition of human recombinant TAK1 at 40 nM related to control ULK1
T4 sequence (whole entry): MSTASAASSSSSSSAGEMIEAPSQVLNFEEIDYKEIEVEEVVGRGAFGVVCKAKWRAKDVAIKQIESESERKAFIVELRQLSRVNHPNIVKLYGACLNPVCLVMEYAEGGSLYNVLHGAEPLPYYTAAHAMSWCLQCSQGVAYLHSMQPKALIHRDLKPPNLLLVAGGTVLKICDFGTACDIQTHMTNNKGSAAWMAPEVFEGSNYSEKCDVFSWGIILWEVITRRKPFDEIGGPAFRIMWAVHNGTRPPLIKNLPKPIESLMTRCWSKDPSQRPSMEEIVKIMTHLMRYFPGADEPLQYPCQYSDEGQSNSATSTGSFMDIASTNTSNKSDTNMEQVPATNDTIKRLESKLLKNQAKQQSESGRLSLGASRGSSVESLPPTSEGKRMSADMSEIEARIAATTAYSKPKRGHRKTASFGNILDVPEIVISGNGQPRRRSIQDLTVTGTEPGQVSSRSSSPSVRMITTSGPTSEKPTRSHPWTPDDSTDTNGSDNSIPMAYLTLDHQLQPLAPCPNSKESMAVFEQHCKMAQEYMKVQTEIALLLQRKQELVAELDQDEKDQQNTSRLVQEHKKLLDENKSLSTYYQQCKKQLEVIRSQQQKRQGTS

Chain of Serine/threonine-protein kinase PAK 2 (Homo sapiens) (Q13177 whole entry): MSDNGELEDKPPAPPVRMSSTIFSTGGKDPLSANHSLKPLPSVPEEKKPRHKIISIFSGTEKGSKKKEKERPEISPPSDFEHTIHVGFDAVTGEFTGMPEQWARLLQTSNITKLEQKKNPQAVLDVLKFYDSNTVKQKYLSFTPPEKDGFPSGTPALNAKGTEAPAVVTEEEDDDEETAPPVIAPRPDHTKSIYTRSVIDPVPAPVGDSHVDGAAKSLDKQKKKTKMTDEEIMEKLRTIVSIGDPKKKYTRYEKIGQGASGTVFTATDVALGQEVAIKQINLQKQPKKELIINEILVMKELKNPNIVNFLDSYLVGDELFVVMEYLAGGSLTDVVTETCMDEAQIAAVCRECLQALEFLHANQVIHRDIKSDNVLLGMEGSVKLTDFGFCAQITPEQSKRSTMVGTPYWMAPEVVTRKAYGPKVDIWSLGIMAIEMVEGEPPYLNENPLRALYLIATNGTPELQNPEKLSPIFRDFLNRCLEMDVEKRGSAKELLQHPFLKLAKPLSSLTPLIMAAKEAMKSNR
Chain of Homeodomain-interacting protein kinase 3 (Homo sapiens) (Q9H422 whole entry, looked up): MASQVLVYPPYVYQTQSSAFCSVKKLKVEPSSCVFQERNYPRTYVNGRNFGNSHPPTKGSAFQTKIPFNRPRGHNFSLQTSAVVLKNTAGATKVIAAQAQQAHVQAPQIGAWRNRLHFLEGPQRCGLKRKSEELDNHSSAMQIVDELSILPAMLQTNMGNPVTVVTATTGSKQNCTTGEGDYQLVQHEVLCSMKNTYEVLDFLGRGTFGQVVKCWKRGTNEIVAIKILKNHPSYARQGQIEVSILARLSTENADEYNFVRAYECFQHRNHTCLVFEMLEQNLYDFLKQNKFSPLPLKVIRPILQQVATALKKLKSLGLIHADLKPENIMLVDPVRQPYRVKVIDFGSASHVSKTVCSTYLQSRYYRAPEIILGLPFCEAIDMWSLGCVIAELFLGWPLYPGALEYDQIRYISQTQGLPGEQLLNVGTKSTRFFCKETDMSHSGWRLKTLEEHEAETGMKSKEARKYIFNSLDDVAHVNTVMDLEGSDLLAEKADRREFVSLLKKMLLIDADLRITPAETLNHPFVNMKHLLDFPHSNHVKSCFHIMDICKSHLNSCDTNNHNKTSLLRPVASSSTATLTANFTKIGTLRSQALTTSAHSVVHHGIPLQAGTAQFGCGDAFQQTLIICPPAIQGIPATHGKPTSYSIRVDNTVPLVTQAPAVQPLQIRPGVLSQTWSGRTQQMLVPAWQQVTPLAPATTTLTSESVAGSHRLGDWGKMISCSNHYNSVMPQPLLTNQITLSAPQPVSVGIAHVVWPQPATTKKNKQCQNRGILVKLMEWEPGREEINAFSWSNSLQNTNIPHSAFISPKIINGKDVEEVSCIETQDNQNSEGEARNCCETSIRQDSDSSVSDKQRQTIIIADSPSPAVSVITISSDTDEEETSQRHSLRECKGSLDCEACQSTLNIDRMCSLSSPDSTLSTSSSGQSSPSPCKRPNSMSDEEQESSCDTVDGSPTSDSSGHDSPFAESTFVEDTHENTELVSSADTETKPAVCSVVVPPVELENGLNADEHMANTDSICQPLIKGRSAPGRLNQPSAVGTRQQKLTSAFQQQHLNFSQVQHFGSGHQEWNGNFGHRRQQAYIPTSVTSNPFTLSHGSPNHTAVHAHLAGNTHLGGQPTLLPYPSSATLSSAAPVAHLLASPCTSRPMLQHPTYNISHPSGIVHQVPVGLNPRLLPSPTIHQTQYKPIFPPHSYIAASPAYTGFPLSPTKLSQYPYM
Chain of Serine/threonine-protein kinase VRK2 (Homo sapiens) (Q86Y07 whole entry): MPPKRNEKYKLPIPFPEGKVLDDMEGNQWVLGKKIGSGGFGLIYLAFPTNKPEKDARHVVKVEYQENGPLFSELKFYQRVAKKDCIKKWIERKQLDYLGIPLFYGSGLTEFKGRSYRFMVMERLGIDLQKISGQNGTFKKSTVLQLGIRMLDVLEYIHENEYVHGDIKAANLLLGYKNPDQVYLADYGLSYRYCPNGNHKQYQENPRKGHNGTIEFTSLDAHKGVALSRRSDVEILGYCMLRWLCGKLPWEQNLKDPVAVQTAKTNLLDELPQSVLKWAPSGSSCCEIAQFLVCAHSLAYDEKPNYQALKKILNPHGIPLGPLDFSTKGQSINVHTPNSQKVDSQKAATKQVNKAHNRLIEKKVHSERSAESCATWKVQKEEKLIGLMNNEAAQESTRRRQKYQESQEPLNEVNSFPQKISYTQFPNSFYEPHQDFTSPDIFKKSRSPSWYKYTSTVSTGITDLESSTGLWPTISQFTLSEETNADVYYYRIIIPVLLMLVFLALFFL

fold change (FC) [1]: 0.05
SMILES: CNC(=O)c1ccccc1Oc1nc(Nc2cc(OC)c(OC)c(OC)c2)ncc1Br

inhibition [2]: 0%
inhibition [3]: 12%
inhibition [4]: 0%
fold change (FC) [5]: 0.26
fold change (FC) [6]: 0.2
fold change (FC) [7]: 0
SMILES: CC(C)[C@H](NC(=O)c1cc(-c2cnn3cc(-c4ccc(OCCN5CCCCC5)cc4)cnc23)cs1)C(F)(F)F

fold change (FC) [8]: 0
SMILES: O=C(N[C@@H](C1CC1)C(F)(F)F)c1cc(-c2cnn3cc(-c4ccc(F)cc4)cnc23)cs1
